Source: patent US20250263799A1, “METHODS OF TREATING CANCER USING REPLICATION STRESS MODULATORS” (The Institute of Cancer Research: Royal Cancer Hospital, priority 2022, published 2025)

How the values were obtained:
[1] = tested on: RPE1 cells engineered with dox inducible expression of HORMAD1; assay: Colony formation (surviving fraction) with ART558 in RPE1 cells with dox inducible expression of HORMAD1; format: cell-based, human
Protocol: (§1) RPE1 (FIGS. 16-17, A) or SUM159 (FIGS. 16-17, B) cells engineered with dox inducible expression of HORMAD1 were seeded at colony forming density in the presence or absence of dox and treated with the indicated doses of ART558. Colonies were counted and surviving fractions for each condition were calculated.

[2] = tested on: SUM159 cells engineered with dox inducible expression of HORMAD1; assay: Colony formation (surviving fraction) with ART558 in SUM159 cells with dox inducible expression of HORMAD1; format: cell-based, human
Protocol: as §1

[3] = tested on: Breast cancer cell lines characterized as HORMAD1 negative and positive; settings: data from depmap.org, FIG. 18C; cited from earlier work
[4] = tested on: SUM159 cells with dox-inducible expression of HORMAD1; assay: LY2606368 sensitivity in SUM159 cells with dox-inducible HORMAD1 (FIG. 18D); format: cell-based, human; settings: +DOX vs -DOX
[5] = tested on: HORMAD1 negative RPE-1 cells engineered to have doxycycline inducible expression of HORMAD1; assay: Novobiocin sensitivity, 10 days, cell viability by cell titre glow; format: cell-based, human
Protocol: HORMAD1 negative RPE-1 cells engineered to have doxycycline inducible expression of HORMAD1 were then assessed for their sensitivity to the POLQ inhibitor Novobiocin. Cells were treated with the indicated doses of Novobiocin for 10 days and cell viability assessed by cell titre glow.

[6] = tested on: SUM149 cells with dox-inducible expression of HORMAD1; assay: CHK1 inhibitor sensitivity, colony forming density, Cell Titer Glow, surviving fraction; format: cell-based, human; settings: FIGS. 18A, B and D

## Cc1cccc(N(C)C(=O)[C@@H]2[C@H](O)CCN2c2nc(C)cc(C(F)(F)F)c2C#N)c1 [ART558]
[1]; RPE1, dox-induced expression of HORMAD1, FIG. 16A
  sensitivity to inhibitor, +DOX vs -DOX: increases sensitivity
[1]; RPE1 cells expressing HORMAD1 (+DOX), 5, 10, and 20 μM ART558
  cell viability (surviving fraction of colonies): significant reduction in cell viability
[1]; RPE1 cells in the absence of the inducer (-DOX), below 20 μM ART558
  cell viability (surviving fraction of colonies): no reduction in cell viability
[2]; SUM159, +DOX vs uninduced
  sensitivity to inhibitor, HORMAD1 expressing vs uninduced controls: significantly increased sensitivity
[2]; SUM159 cells expressing HORMAD1 (+DOX), 10 and 20 μM ART558
  cell viability (surviving fraction of colonies): significant reduction in cell viability

## COc1cccc(OCCCN)c1-c1cc(Nc2cnc(C#N)cn2)n[nH]1 [LY2606368]
[3]
  mean area under the curve (AUC), HORMAD1 positive vs HORMAD1 negative group: lower mean AUC
[4]
  sensitivity to CHK1 inhibitor upon induction of HORMAD1 expression: increased sensitivity

## CO[C@@H]1[C@@H](OC(N)=O)[C@@H](O)[C@H](Oc2ccc3c(O)c(NC(=O)c4ccc(O)c(CC=C(C)C)c4)c(=O)oc3c2C)OC1(C)C [Novobiocin]
[5]; +DOX vs uninduced, difference dose-dependent
  sensitivity to inhibitor, HORMAD1 expressing vs uninduced controls: significantly increased sensitivity
[5]; Novobiocin at concentrations above 50 μM, 10 days
  colony survival: significant and dose-dependent reduction in colony survival

## Cn1cc(-c2[nH]c3cc(NC(=O)[C@H](N)C4CCCCC4)cc4c3c2C=NNC4=O)cn1 [PF47736]
[6]
  sensitivity to CHK1 inhibitor, HORMAD1 expressing vs uninduced controls: significantly increased sensitivity

## C[C@H](CN(C)C)Oc1nc(Nc2cc3cccc(Cl)c3cn2)cnc1C#N [SAR020106]
[6]
  sensitivity to CHK1 inhibitor, HORMAD1 expressing vs uninduced controls: significantly increased sensitivity
